Assay results: patent US9617267B2, “Compounds and methods for kinase modulation, and indications therefor” (Plexxikon Inc., priority 2009, dated 2017)
Like-named read-outs stand apart in the source and are kept apart here.

Tests used:
B-Raf V600E = B-Raf V600E (Homo sapiens (Human), UniProt P15056, V600E); test: B-Raf V600E kinase activity biochemical assay (AlphaScreen, biotin-MEK1 phosphorylation); details: for IC50: B-Raf V600E; for Biochemical activity ratio V600E/C: ratio of IC50 B-Raf V600E / c-Raf-1
Protocol: (§1) Compounds to be tested are diluted in dimethyl sulfoxide to a concentration of 0.1 mM. These are serially diluted 15 μL into 30 μL of dimethyl sulfoxide seven times in 96 well plates for a total of 8 dilution points, and for each dilution point 1 μL is added to a well of an assay plate. […] The reaction is started with addition of 10 μL of 200 μM ATP (i.e. final 100 μM ATP). After incubation of the kinase reaction for 45 minutes at room temperature, 5 μL/well of Stop Solution is added (25 mM Hepes pH 7.5, 100 mM EDTA, 0.01% BSA with donor beads (Streptavidin coated beads, Perkin Elmer), acceptor beads (Protein A coated, Perkin Elmer), and anti phosphor MEK1/2 antibody (CellSignal), each at final concentration 10 μg/mL). The plates are incubated for 3 hours at room temperature and read on Envision reader (Perkin Elmer). […] The signal vs. compound concentration is used to determine the IC50.

c-Raf-1 = c-Raf-1 (Homo sapiens, UniProt P04049); test: c-Raf-1 kinase activity biochemical assay (AlphaScreen, biotin-MEK1 phosphorylation)
Protocol: as §1

CYP2C9 = CYP2C9 (Homo sapiens (Human), UniProt P11712); test: CYP enzyme inhibition, fluorescent substrate (MFC); details: read-out: Cyp IC50 2C9; CYP2C9, substrate MFC
Protocol: (§2) CYP (Cytochrome P450) enzymes are the major drug metabolizing enzymes present in the liver. The inhibition of CYP enzyme activity (IC50) for each of CYP1A2, CYP2C19, CYP2C9, CYP2D6, CYP3A4(BFC) and CYP3A4(BQ) is determined for compounds, where inhibition of metabolism of a known substrate leads to a decrease in the fluorescence of the metabolized product. The fluorescence of the product is monitored as a function of compound concentration.
(§3) Compounds are dissolved in dimethyl sulfoxide to a concentration of 100 mM. These are diluted 1 μL into 82 μL of acetonitrile. […] These are then serially diluted 1:1 (160 μL to 160 μL co-factor mix) for a total of 10 points. A 10 μL aliquot of this final mixture is dispensed into 384 well assay plates and incubated for 10 minutes at 37° C. […] Assay plates are incubated at 37° C. […] The signal versus compound concentration is used to determine the IC50. The enzymes and substrates for this assay are obtained from BD Biosciences.

CYP3A4(BFC) = CYP3A4(BFC) (Homo sapiens (Human), UniProt P08684); test: CYP enzyme inhibition, fluorescent substrate BFC
Protocol: as §2, §3

CYP2D6 = CYP2D6 (Homo sapiens (Human), UniProt P10635); test: CYP enzyme inhibition, fluorescent substrate (AMMC); type: in vitro ADME; details: read-out: Cyp IC50 2D6
Protocol: as §2
(§4) Compounds are dissolved in dimethyl sulfoxide to a concentration of 100 mM. These are diluted 1 μL into 82 μL of acetonitrile. An 11 μL aliquot of this solution is then added to 204 μL of cofactor mix (1.3% NADPH Regeneration system Solution A, 1.04% NADPH Regeneration system Solution B from BD Biosciences, 5% acetonitrile and 0.05% dimethyl sulfoxide). These are then serially diluted 1:1 (160 μL to 160 μL co-factor mix) for a total of 10 points. A 10 μL aliquot of this final mixture is dispensed into 384 well assay plates and incubated for 10 minutes at 37° C. Enzyme and substrate mix (10 μL; 0.5 pmol CYP1A2/5 μM CEC; 1.0 pmol CYP2C9/75 μM MFC; 0.5 pmol CYP2C19/25 μM CEC; 1.5 pmol CYP2D6/1.5 μM AMMC; 1.0 pmol CYP3A4/50 μM BFC; or 1.0 pmol CYP3A4/40 μM BQ) is added to these assay plates. Assay plates are incubated at 37° C. (CYP1A2-15 min; CYP2C9-45 min; CYP2C19, 2D6 and 3A4-30 min) and read in a Tecan Safire 2 plate reader (CYP1A2, 2C19 and 3A4 409 ex/460 em; CYP2C9 and 2D6 409 ex/530 em). The signal versus compound concentration is used to determine the IC50. The enzymes and substrates for this assay are obtained from BD Biosciences.

B-Raf [1] = test: B-Raf kinase activity biochemical assay (AlphaScreen, biotin-MEK1 phosphorylation); details: for Biochemical activity ratio B/V600E: ratio of IC50 B-Raf / B-Raf V600E; for Biochemical activity ratio B/C: ratio of IC50 B-Raf / c-Raf-1
Protocol: as §1

B-Raf [2] = molecular target: B-Raf (Homo sapiens (Human), UniProt P15056); test: as above; details: B-Raf
Protocol: as §1

CYP2C19 = CYP2C19 (Homo sapiens (Human), UniProt P33261); test: CYP enzyme inhibition, fluorescent substrate (CEC)
Protocol: as §2, §3

CYP1A2 = CYP1A2 (Homo sapiens (Human), UniProt P05177); test: CYP enzyme inhibition, fluorescent substrate (CEC)
Protocol: as §2, §4

[3] = Relative solubility by turbidity threshold concentration in aqueous buffers (pH 1.5, 4.5, 6.8, 7.4); type: physicochemical; details: for turbidity threshold (L, M, H) 1.4: pH 1.4 [sic] (method: SGF pH 1.5); for turbidity threshold (L, M, H) 4.5: pH 4.5 (SIF); for turbidity threshold (L, M, H) 6.8: pH 6.8 (SIF); for turbidity threshold (L, M, H) 7.4: pH 7.4 (HEPES)
Summary of the method: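 Solubility class (high >250 μM, moderate 31.3–250 μM, low <31.3 μM) comes from the concentration where absorbance reaches a 0.01 threshold, averaged across 490/535/650 nm. Samples were compound dilutions from DMSO stock, 1 μL into 99 μL buffer at pH 1.5, 4.5, 6.8 or 7.4.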

[4] = read-out: Cyp IC50 3A4(BFC), CYP3A4, substrate BFC
[5] = read-out: Cyp IC50 1A2, CYP1A2, substrate CEC
[6] = read-out: Cyp IC50 2C19, CYP2C19, substrate CEC

Sequence of CYP2C19 (P33261 whole entry): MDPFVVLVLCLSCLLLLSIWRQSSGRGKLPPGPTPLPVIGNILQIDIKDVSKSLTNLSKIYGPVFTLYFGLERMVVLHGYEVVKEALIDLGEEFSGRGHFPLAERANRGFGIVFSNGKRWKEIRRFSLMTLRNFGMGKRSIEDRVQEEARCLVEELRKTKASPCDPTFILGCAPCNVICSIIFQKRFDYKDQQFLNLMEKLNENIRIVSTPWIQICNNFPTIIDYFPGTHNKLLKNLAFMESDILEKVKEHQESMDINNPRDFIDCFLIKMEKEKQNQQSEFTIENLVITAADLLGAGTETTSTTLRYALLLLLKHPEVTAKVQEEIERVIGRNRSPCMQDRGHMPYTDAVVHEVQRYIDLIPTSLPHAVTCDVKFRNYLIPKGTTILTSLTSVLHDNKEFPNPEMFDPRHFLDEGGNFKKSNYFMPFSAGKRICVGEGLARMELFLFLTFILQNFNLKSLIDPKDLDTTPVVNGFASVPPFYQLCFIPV
Sequence of CYP3A4(BFC) (P08684 whole entry): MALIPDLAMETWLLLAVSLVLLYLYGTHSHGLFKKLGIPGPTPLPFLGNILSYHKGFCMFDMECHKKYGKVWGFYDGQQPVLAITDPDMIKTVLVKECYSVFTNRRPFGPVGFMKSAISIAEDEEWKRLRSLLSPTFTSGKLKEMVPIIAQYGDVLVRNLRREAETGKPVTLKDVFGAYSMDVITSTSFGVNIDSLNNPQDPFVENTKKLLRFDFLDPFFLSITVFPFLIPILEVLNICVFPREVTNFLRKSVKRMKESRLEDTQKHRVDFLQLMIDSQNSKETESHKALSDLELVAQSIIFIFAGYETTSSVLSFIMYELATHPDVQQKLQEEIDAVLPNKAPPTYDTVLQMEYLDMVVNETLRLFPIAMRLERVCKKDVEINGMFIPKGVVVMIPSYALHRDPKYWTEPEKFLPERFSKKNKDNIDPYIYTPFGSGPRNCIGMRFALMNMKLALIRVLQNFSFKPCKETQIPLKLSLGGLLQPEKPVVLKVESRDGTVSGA
Sequence of CYP2D6 (P10635 whole entry): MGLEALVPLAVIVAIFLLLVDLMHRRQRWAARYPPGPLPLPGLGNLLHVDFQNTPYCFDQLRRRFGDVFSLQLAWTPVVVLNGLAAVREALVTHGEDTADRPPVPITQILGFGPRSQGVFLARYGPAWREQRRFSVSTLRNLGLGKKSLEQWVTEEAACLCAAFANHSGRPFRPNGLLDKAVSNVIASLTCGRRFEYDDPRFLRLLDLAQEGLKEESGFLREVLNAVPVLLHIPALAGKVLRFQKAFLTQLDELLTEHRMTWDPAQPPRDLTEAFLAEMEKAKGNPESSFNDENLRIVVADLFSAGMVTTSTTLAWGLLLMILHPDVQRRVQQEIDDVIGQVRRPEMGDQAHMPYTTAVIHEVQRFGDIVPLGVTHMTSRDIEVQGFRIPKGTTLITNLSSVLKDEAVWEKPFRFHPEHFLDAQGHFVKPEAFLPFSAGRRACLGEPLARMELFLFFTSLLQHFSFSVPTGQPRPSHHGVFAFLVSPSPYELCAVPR
Sequence of B-Raf (Homo sapiens (Human), UniProt P15056) (P15056 whole entry): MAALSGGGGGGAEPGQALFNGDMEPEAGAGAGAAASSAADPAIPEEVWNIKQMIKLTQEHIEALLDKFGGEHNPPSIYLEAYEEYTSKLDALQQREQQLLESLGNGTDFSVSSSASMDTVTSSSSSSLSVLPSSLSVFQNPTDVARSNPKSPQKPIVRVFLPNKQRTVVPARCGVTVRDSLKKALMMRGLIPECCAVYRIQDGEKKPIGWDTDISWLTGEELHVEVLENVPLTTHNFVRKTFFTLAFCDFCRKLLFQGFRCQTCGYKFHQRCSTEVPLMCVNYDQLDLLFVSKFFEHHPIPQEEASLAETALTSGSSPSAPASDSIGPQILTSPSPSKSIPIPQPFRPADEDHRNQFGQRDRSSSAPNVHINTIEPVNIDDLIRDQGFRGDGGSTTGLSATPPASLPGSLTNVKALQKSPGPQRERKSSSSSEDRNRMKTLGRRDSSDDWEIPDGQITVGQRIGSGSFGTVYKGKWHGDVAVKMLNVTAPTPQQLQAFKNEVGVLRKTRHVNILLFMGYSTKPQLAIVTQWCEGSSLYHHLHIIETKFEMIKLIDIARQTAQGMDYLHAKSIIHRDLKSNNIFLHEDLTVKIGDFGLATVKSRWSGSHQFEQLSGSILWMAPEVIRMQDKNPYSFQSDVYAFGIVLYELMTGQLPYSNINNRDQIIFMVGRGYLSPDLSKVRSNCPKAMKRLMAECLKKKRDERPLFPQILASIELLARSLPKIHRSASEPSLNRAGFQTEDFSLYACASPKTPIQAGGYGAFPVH
Sequence of B-Raf V600E (P15056 whole entry V600E): as the sequence (P15056 whole entry) above, with V600E counted along it
Sequence of CYP2C9 (P11712 whole entry): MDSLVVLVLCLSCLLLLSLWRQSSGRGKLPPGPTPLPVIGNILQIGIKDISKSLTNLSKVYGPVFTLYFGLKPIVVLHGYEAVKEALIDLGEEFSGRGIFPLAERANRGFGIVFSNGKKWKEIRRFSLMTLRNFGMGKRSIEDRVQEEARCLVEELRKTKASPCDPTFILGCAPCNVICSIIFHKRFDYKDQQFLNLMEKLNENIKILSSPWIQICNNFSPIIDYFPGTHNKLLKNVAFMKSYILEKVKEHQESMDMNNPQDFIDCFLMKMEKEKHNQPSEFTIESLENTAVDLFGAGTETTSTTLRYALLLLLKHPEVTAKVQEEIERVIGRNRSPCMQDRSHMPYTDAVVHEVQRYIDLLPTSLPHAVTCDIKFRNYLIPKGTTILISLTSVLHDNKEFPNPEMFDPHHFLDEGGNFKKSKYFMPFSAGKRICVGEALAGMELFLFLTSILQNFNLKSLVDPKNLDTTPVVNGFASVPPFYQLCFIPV
Sequence of CYP1A2 (P05177 whole entry): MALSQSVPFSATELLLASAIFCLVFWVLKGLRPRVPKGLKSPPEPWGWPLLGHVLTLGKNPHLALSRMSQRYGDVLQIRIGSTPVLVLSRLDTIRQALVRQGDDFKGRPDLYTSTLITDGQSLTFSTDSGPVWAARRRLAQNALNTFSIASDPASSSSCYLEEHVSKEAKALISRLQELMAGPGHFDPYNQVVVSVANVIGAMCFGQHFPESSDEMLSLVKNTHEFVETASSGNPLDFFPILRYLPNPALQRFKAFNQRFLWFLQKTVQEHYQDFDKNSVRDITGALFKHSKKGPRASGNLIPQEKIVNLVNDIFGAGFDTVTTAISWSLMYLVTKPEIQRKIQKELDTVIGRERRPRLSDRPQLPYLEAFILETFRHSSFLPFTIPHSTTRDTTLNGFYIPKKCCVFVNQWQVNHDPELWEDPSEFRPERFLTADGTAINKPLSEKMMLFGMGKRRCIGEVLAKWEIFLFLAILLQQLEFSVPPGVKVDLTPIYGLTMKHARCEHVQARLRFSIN
Sequence of c-Raf-1 (P04049 whole entry, looked up): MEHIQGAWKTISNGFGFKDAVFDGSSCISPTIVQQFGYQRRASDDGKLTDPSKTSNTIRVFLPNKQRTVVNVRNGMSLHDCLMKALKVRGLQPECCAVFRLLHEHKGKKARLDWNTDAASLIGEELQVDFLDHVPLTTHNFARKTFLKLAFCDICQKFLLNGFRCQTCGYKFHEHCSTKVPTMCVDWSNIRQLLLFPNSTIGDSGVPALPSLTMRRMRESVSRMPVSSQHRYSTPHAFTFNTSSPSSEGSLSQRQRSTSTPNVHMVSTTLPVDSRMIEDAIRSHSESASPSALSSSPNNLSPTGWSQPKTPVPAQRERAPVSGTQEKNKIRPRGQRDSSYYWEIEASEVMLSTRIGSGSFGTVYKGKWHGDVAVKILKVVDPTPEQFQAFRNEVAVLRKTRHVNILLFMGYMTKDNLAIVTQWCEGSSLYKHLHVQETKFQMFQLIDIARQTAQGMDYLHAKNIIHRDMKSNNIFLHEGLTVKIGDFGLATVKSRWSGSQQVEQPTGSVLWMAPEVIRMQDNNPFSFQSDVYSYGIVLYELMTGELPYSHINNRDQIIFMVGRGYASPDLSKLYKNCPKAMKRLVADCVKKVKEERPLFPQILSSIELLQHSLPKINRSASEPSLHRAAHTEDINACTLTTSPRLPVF

Compound	IC50 (B-Raf V600E) [µM]	Biochemical activity ratio V600E/C (B-Raf V600E)	IC50 (c-Raf-1) [µM]	IC50 (CYP2C9) [µM]	IC50 (CYP3A4(BFC); [4]) [µM]	IC50 (CYP2D6) [µM]	Biochemical activity ratio B/V600E (B-Raf [1])	Biochemical activity ratio B/C (B-Raf [1])	IC50 (B-Raf [2]) [µM]	IC50 (CYP2C19) [µM]	IC50 (CYP1A2; [5]) [µM]	turbidity threshold (L, M, H) 1.4 [3]	turbidity threshold (L, M, H) 4.5 [3]	IC50 (CYP3A4(BFC)) [µM]	IC50 (CYP2C19; [6]) [µM]	IC50 (CYP1A2; human, 15 min) [µM]	turbidity threshold (L, M, H) 6.8 [3]	turbidity threshold (L, M, H) 7.4 [3]
CCCNc1ncnc2[nH]cc(C(=O)c3c(F)ccc(NS(=O)(=O)c4ccc(C(F)(F)F)cc4)c3F)c12 [P-1032, N-[2,4-Difluoro-3-(4-propylamino-7H-pyrrolo[2,3-d]pyrimidine-5-carbonyl)-phenyl]-4-trifluoromethyl-benzenesulfonamide]	< 0.1	>10	< 0.1	> 10	> 10	> 10	0.1-10	>10	< 0.1	5 to 10	> 10	L (low solubility if the threshold concentration is <31.3 μM)	L (low solubility if the threshold concentration is <31.3 μM)	–	–	–	–	–
COc1ncnc2[nH]cc(C(=O)c3c(F)ccc(NS(=O)(=O)c4cc(C)cc(C)c4)c3F)c12 [P-1025, N-[2,4-Difluoro-3-(4-methoxy-7H-pyrrolo[2,3-d]pyrimidine-5-carbonyl)-phenyl]-3,5-dimethyl-benzenesulfonamide]	> 0.1	0.1-10	< 0.1	> 10	–	> 10	0.1-10	>10	> 0.1	–	–	M (moderate solubility if the threshold concentration is 31.3 μM to 250 μM)	L (low solubility if the threshold concentration is <31.3 μM)	5 to 10	> 10	> 10	M (moderate solubility if the threshold concentration is 31.3 μM to 250 μM)	–
Nc1ncnc2[nH]cc(C(=O)c3c(F)ccc(NS(=O)(=O)c4ccc(C(F)(F)F)cc4)c3F)c12 [P-1031, N-[3-(4-Amino-7H-pyrrolo[2,3-d]pyrimidine-5-carbonyl)-2,4-difluoro-phenyl]-4-trifluoromethyl-benzenesulfonamide]	> 0.1	>10	< 0.1	> 10	> 10	> 10	0.1-10	>10	> 0.1	–	> 10	M (moderate solubility if the threshold concentration is 31.3 μM to 250 μM)	M (moderate solubility if the threshold concentration is 31.3 μM to 250 μM)	–	> 10	–	M (moderate solubility if the threshold concentration is 31.3 μM to 250 μM)	M (moderate solubility if the threshold concentration is 31.3 μM to 250 μM)
CNc1ncnc2[nH]cc(C(=O)c3c(F)ccc(NS(=O)(=O)c4ccc(C(F)(F)F)cc4)c3F)c12 [P-1026, N-[2,4-Difluoro-3-(4-methylamino-7H-pyrrolo[2,3-d]pyrimidine-5-carbonyl)-phenyl]-4-trifluoromethyl-benzenesulfonamide]	> 0.1	>10	< 0.1	> 10	> 10	> 10	0.1-10	>10	> 0.1	–	–	–	–	–	> 10	> 10	M (moderate solubility if the threshold concentration is 31.3 μM to 250 μM)	M (moderate solubility if the threshold concentration is 31.3 μM to 250 μM)
